According to the supplement of paper PMC11061612:

Assays:
Capivasertib = compound: C1CN(CCC1(C(=O)N[C@@H](CCO)C2=CC=C(C=C2)Cl)N)C3=NC=NC4=C3C=CN4 [Capivasertib]; details: max 10 µM
How it was run: (§1)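 Cancer cell lines were plated in 1536-well plates in 7.5 μl of DMEM/F12 or RPMI with 10% FBS and kept 24 hours at 37°C and 5% CO2 before 72 hours of dosing, with final DMSO typically 0.2%. CellTiter-Glo 2.0 luminescence measured viability, scaled between blank-well and DMSO-well means. Dose responses were fitted to a two-parameter logistic curve with a non-linear mixed effects model. This fit gives the single-agent IC50.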

AZD1775 = compound: C=CCn1c(=O)c2cnc(Nc3ccc(N4CCN(C)CC4)cc3)nc2n1-c1cccc(C(C)(C)O)n1 [AZD1775]; details: max 3 µM
How it was run: as §1

Trametinib = compound: CC(=O)Nc1cccc(-n2c(=O)n(C3CC3)c(=O)c3c(Nc4ccc(I)cc4F)n(C)c(=O)c(C)c32)c1 [Trametinib]; details: max 1 µM
How it was run: as §1

Palbociclib = compound: CC(=O)c1c(C)c2cnc(Nc3ccc(N4CCNCC4)cn3)nc2n(C2CCCC2)c1=O [Palbociclib]; details: max 10 µM
How it was run: as §1

AZD1390 = compound: CC(C)n1c(=O)n(C)c2cnc3cc(F)c(-c4ccc(OCCCN5CCCCC5)nc4)cc3c21 [AZD1390]; details: max 0.3 µM
How it was run: as §1

Venetoclax = compound: CC1(C)CCC(CN2CCN(c3ccc(C(=O)NS(=O)(=O)c4ccc(NCC5CCOCC5)c([N+](=O)[O-])c4)c(Oc4cnc5[nH]ccc5c4)c3)CC2)=C(c2ccc(Cl)cc2)C1 [Venetoclax]; details: max 1 µM
How it was run: as §1

Dasatinib = compound: CC1=C(C(=CC=C1)Cl)NC(=O)C2=CN=C(S2)NC3=CC(=NC(=N3)C)N4CCN(CC4)CCO [Dasatinib]; details: max 2 µM
How it was run: as §1

SG3199 = compound: CC1=CN2[C@@H](C1)C=NC3=CC(=C(C=C3C2=O)OC)OCCCCCOC4=C(C=C5C(=C4)N=C[C@@H]6CC(=CN6C5=O)C)OC [SG3199]; details: max 0.001 µM
How it was run: as §1

AZD2811 = compound: CCN(CCO)CCCOc1ccc2c(Nc3cc(CC(=O)Nc4cccc(F)c4)[nH]n3)ncnc2c1 [AZD2811]; details: max 1 µM
How it was run: as §1

SN-38 = compound: CCc1c2c(nc3ccc(O)cc13)-c1cc3c(c(=O)n1C2)COC(=O)[C@]3(O)CC [SN-38]; details: max 0.3 µM
How it was run: as §1

AZD0156 = compound: CN(C)CCCOc1ccc(-c2ccc3ncc4c(c3c2)n(C2CCOCC2)c(=O)n4C)cn1 [AZD0156]; details: max 3 µM
How it was run: as §1

AZD4320 = compound: CN(CC[C@H](CSC1=CC=CC=C1)NC2=C(C=C(C=C2)S(=O)(=O)NC(=O)C3=CC=C(C=C3)N4CCC(CC4)[C@H](C5=CC=CC=C5C6=CC=C(C=C6)Cl)O)S(=O)(=O)C(F)(F)F)CCO [AZD4320]; details: max 1 µM
How it was run: as §1

Alisertib = compound: COc1cc(Nc2ncc3c(n2)-c2ccc(Cl)cc2C(c2c(F)cccc2OC)=NC3)ccc1C(=O)O [Alisertib]; details: max 10 µM
How it was run: as §1

Gefitinib = compound: COc1cc2ncnc(Nc3ccc(F)c(Cl)c3)c2cc1OCCCN1CCOCC1 [Gefitinib]; details: max 10 µM
How it was run: as §1

Prexasertib = compound: COc1cccc(OCCCN)c1-c1cc(Nc2cnc(C#N)cn2)n[nH]1 [Prexasertib]; details: max 1 µM
How it was run: as §1

Doxorubicin = compound: COc1cccc2c1C(=O)c1c(O)c3c(c(O)c1C2=O)C[C@@](O)(C(=O)CO)C[C@@H]3O[C@H]1C[C@H](N)[C@H](O)[C@H](C)O1 [Doxorubicin]; details: max 1 µM
How it was run: as §1

AZD5153 = compound: COc1nnc2ccc(N3CCC(c4ccc(OCCN5CCN(C)C(=O)[C@H]5C)cc4)CC3)nn12 [AZD5153]; details: max 1 µM
How it was run: as §1

Lapatinib = compound: CS(=O)(=O)CCNCc1ccc(-c2ccc3ncnc(Nc4ccc(OCc5cccc(F)c5)c(Cl)c4)c3c2)o1 [Lapatinib]; details: max 10 µM
How it was run: as §1

AZD8186 = compound: C[C@@H](Nc1cc(F)cc(F)c1)c1cc(C(=O)N(C)C)cc2c(=O)cc(N3CCOCC3)oc12 [AZD8186]; details: max 3 µM
How it was run: as §1

Crizotinib = compound: C[C@@H](Oc1cc(-c2cnn(C3CCNCC3)c2)cnc1N)c1c(Cl)ccc(F)c1Cl [Crizotinib]; details: max 10 µM
How it was run: as §1

Savolitinib = compound: C[C@@H](c1ccc2nccn2c1)n1nnc2ncc(-c3cnn(C)c3)nc21 [Savolitinib]; details: max 1 µM
How it was run: as §1

AZD6738 = compound: C[C@@H]1COCCN1C2=NC(=NC(=C2)C3(CC3)[S@](=N)(=O)C)C4=C5C=CNC5=NC=C4 [AZD6738]; details: max 10 µM
How it was run: as §1

AZD5991 = compound: Cc1c2c(nn1C)CSCc1cc(n(C)n1)CSc1cc(c3ccccc3c1)OCCCc1c(C(=O)O)n(C)c3c-2c(Cl)ccc13 [AZD5991]; details: max 1 µM
How it was run: as §1

AZD7648 = compound: Cc1cc2ncnn2cc1Nc1ncc2c(n1)n(C1CCOCC1)c(=O)n2C [AZD7648]; details: max 10 µM
How it was run: as §1

Taselisib = compound: Cc1nc(-c2cn3c(n2)-c2ccc(-c4cnn(C(C)(C)C(N)=O)c4)cc2OCC3)n(C(C)C)n1 [Taselisib]; details: max 10 µM
How it was run: as §1

Selumetinib = compound: Cn1cnc2c(F)c(Nc3ccc(Br)cc3Cl)c(C(=O)NOCCO)cc21 [Selumetinib]; details: max 10 µM
How it was run: as §1

MK-2206 = compound: NC1(c2ccc(-c3nc4ccn5c(=O)[nH]nc5c4cc3-c3ccccc3)cc2)CCC1 [MK-2206]; details: max 10 µM
How it was run: as §1

Olaparib = compound: O=C(c1cc(Cc2n[nH]c(=O)c3ccccc23)ccc1F)N1CCN(C(=O)C2CC2)CC1 [Olaparib]; details: max 10 µM
How it was run: as §1

Cell Line	IC50, cell viability 72 h (Capivasertib) [nM]	IC50, cell viability 72 h (AZD1775) [nM]	IC50, cell viability 72 h (Trametinib) [nM]	IC50, cell viability 72 h (Palbociclib) [nM]	IC50, cell viability 72 h (AZD1390) [nM]	IC50, cell viability 72 h (Venetoclax) [nM]	IC50, cell viability 72 h (Dasatinib) [nM]	IC50, cell viability 72 h (SG3199) [nM]	IC50, cell viability 72 h (AZD2811) [nM]	IC50, cell viability 72 h (SN-38) [nM]	IC50, cell viability 72 h (AZD0156) [nM]	IC50, cell viability 72 h (AZD4320) [nM]	IC50, cell viability 72 h (Alisertib) [nM]	IC50, cell viability 72 h (Gefitinib) [nM]	IC50, cell viability 72 h (Prexasertib) [nM]	IC50, cell viability 72 h (Doxorubicin) [nM]	IC50, cell viability 72 h (AZD5153) [nM]	IC50, cell viability 72 h (Lapatinib) [nM]	IC50, cell viability 72 h (AZD8186) [nM]	IC50, cell viability 72 h (Crizotinib) [nM]	IC50, cell viability 72 h (Savolitinib) [nM]	IC50, cell viability 72 h (AZD6738) [nM]	IC50, cell viability 72 h (AZD5991) [nM]	IC50, cell viability 72 h (AZD7648) [nM]	IC50, cell viability 72 h (Taselisib) [nM]	IC50, cell viability 72 h (Selumetinib) [nM]	IC50, cell viability 72 h (MK-2206) [nM]	IC50, cell viability 72 h (Olaparib) [nM]
ASH-3 (Thyroid Gland Carcinoma)	> 10000	> 3000	> 1000	> 10000	> 300	> 1000	1240	> 1	> 1000	28.8	> 3000	> 1000	> 10000	> 10000	569	688	283	> 10000	> 3000	> 10000	> 1000	> 10000	> 1000	> 10000	6860	> 10000	> 10000	> 10000
KU-19-19 (Bladder Carcinoma)	> 10000	462	6.44	> 10000	> 300	> 1000	711	> 1	> 1000	41.6	> 3000	> 1000	5630	> 10000	36.1	447	117	> 10000	> 3000	> 10000	> 1000	2160	> 1000	> 10000	> 10000	678	> 10000	> 10000
KYSE-50 (Esophageal Squamous Cell Carcinoma)	> 10000	1820	> 1000	> 10000	> 300	> 1000	263	> 1	> 1000	> 300	> 3000	> 1000	3860	> 10000	108	> 1000	664	> 10000	> 3000	> 10000	> 1000	8940	> 1000	> 10000	8390	> 10000	–	> 10000
KYSE-150 (Esophageal Squamous Cell Carcinoma)	> 10000	1150	498	> 10000	> 300	> 1000	> 2000	> 1	> 1000	117	> 3000	> 1000	5850	> 10000	> 1000	158	420	3190	> 3000	4280	> 1000	> 10000	> 1000	> 10000	1340	> 10000	> 10000	> 10000
LOU-NH91 (Squamous Cell Lung Carcinoma)	> 10000	1350	> 1000	> 10000	> 300	> 1000	657	> 1	> 1000	17.1	> 3000	> 1000	> 10000	> 10000	> 1000	542	239	> 10000	> 3000	> 10000	> 1000	> 10000	> 1000	> 10000	5870	> 10000	–	> 10000
MFE-319 (Endometrial Carcinoma)	> 10000	740	> 1000	> 10000	> 300	> 1000	> 2000	> 1	> 1000	> 300	> 3000	> 1000	> 10000	> 10000	51.5	> 1000	> 1000	> 10000	> 3000	> 10000	> 1000	4510	> 1000	> 10000	9920	> 10000	> 10000	> 10000
NCI-H322M (Lung Adenocarcinoma)	> 10000	349	156	> 10000	> 300	> 1000	1960	> 1	> 1000	98.7	> 3000	> 1000	> 10000	816	10.6	735	742	7360	> 3000	> 10000	> 1000	1130	> 1000	> 10000	692	2890	–	> 10000
